From PubChem BioAssay AID1963851 (Molecular Pharmacology Branch, DTP, NCI, 2024)

Test system: 188146-221-R-J1-PDC complex spheroid viability
Test: Anticancer human tumor 188146-221-R-J1-PDC patient-derived colon adenocarcinoma cell line growth inhibition [POLQ]
Settings: for IC50: curve of first compound; for viability, T/C: stronger effect = lower value; active means viability on the fitted dose curve at most 10% of control; inactive means the rest
Procedure, shortened: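 Growth inhibition in 3D: complex spheroids (tumor PDC, HUVEC, MSC) treated with POLQ inhibitor combinations; where Cmax unknown, highest tested concentration 10 microM, except SN-38 at 1 microM.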

[1] = second compound 0.0316 µM, first compound 0.0316 µM
[2] = second compound 0.0316 µM, first compound 0.1 µM
[3] = second compound 0.0316 µM, first compound 0.316 µM
[4] = second compound 0.0316 µM, first compound 1 µM
[5] = second compound 0.0316 µM, first compound 3.16 µM
[6] = second compound 0.0316 µM, first compound 10 µM
[7] = second compound 0.1 µM, first compound 0.0316 µM
[8] = second compound 0.1 µM, first compound 0.1 µM
[9] = second compound 0.1 µM, first compound 0.316 µM
[10] = second compound 0.1 µM, first compound 1 µM
[11] = second compound 0.1 µM, first compound 3.16 µM
[12] = second compound 0.1 µM, first compound 10 µM
[13] = second compound 0.316 µM, first compound 0.0316 µM
[14] = second compound 0.316 µM, first compound 0.1 µM
[15] = second compound 0.316 µM, first compound 0.316 µM
[16] = second compound 0.316 µM, first compound 1 µM
[17] = second compound 0.316 µM, first compound 3.16 µM
[18] = second compound 0.316 µM, first compound 10 µM
[19] = second compound 1 µM, first compound 0.0316 µM
[20] = second compound 1 µM, first compound 0.1 µM
[21] = second compound 1 µM, first compound 0.316 µM
[22] = second compound 1 µM, first compound 1 µM
[23] = second compound 1 µM, first compound 3.16 µM
[24] = second compound 1 µM, first compound 10 µM
[25] = second compound 3.16 µM, first compound 0.0316 µM
[26] = second compound 3.16 µM, first compound 0.1 µM
[27] = second compound 3.16 µM, first compound 0.316 µM
[28] = second compound 3.16 µM, first compound 1 µM
[29] = second compound 3.16 µM, first compound 3.16 µM
[30] = second compound 3.16 µM, first compound 10 µM
[31] = second compound 10 µM, first compound 0.0316 µM
[32] = second compound 10 µM, first compound 0.1 µM
[33] = second compound 10 µM, first compound 0.316 µM
[34] = second compound 10 µM, first compound 1 µM
[35] = second compound 10 µM, first compound 3.16 µM
[36] = second compound 10 µM, first compound 10 µM
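Further: spheroids exposed to compounds for seven days.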
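Wherever viability, T/C is given: 100% = DMSO vehicle control viability.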

CCCS(=O)(=O)Nc1ccc(F)c(C(=O)c2c[nH]c3ncc(-c4ccc(Cl)cc4)cc23)c1F + Nc1ccc(C#CCN(C(=O)Cc2ncc(C(F)(F)F)cc2C(F)(F)F)c2ccc(F)cc2)nn1
6.27 µM: IC50 (second compound 3.16 µM)
6.11 µM: IC50 (second compound 0.1 µM)
6.54 µM: IC50 (second compound 10 µM)
6.33 µM: IC50 (second compound 1 µM)
6.67 µM: IC50 (second compound 0.0316 µM)
6.9 µM: IC50 (second compound 0.316 µM)
inactive: viability, T/C [1] 104% | viability, T/C [2] 116% | viability, T/C [3] 101% | viability, T/C [4] 84.7% | viability, T/C [5] 85.3% | viability, T/C [6] 33.6% | viability, T/C [7] 119% | viability, T/C [8] 98.2% | viability, T/C [9] 103% | viability, T/C [10] 89.2% | viability, T/C [11] 81.9% | viability, T/C [12] 29% | viability, T/C [13] 94.4% | viability, T/C [14] 99.6% | viability, T/C [15] 101% | viability, T/C [16] 88.7% | viability, T/C [17] 93.8% | viability, T/C [18] 29.2% | viability, T/C [19] 95.9% | viability, T/C [20] 96.7% | viability, T/C [21] 88.9% | viability, T/C [22] 76.8% | viability, T/C [23] 80.2% | viability, T/C [24] 33% | viability, T/C [25] 98.5% | viability, T/C [26] 104% | viability, T/C [27] 104% | viability, T/C [28] 77.2% | viability, T/C [29] 84% | viability, T/C [30] 30.6% | viability, T/C [31] 116% | viability, T/C [32] 112% | viability, T/C [33] 103% | viability, T/C [34] 91.5% | viability, T/C [35] 82.5% | viability, T/C [36] 33.1%

CNCc1ccc(-c2[nH]c3cc(F)cc4c3c2CCNC4=O)cc1 + Nc1ccc(C#CCN(C(=O)Cc2ncc(C(F)(F)F)cc2C(F)(F)F)c2ccc(F)cc2)nn1
> 10 µM: IC50 (second compound 0.0316 µM) | IC50 (second compound 0.1 µM) | IC50 (second compound 0.316 µM) | IC50 (second compound 1 µM) | IC50 (second compound 3.16 µM) | IC50 (second compound 10 µM)
inactive: viability, T/C [1] 114% | viability, T/C [2] 107% | viability, T/C [3] 109% | viability, T/C [4] 106% | viability, T/C [5] 103% | viability, T/C [6] 120% | viability, T/C [7] 111% | viability, T/C [8] 104% | viability, T/C [9] 100% | viability, T/C [10] 113% | viability, T/C [11] 108% | viability, T/C [12] 116% | viability, T/C [13] 114% | viability, T/C [14] 100% | viability, T/C [15] 85.3% | viability, T/C [16] 110% | viability, T/C [17] 123% | viability, T/C [18] 119% | viability, T/C [19] 106% | viability, T/C [20] 99.2% | viability, T/C [21] 93.5% | viability, T/C [22] 111% | viability, T/C [23] 104% | viability, T/C [24] 100% | viability, T/C [25] 102% | viability, T/C [26] 94.7% | viability, T/C [27] 99.5% | viability, T/C [28] 109% | viability, T/C [29] 110% | viability, T/C [30] 103% | viability, T/C [31] 114% | viability, T/C [32] 115% | viability, T/C [33] 112% | viability, T/C [34] 108% | viability, T/C [35] 120% | viability, T/C [36] 130%

Cn1ncnc1[C@H]1c2n[nH]c(=O)c3cc(F)cc(c23)N[C@@H]1c1ccc(F)cc1 + Nc1ccc(C#CCN(C(=O)Cc2ncc(C(F)(F)F)cc2C(F)(F)F)c2ccc(F)cc2)nn1
> 0.1 µM: IC50 (second compound 0.0316 µM) | IC50 (second compound 0.1 µM) | IC50 (second compound 0.316 µM) | IC50 (second compound 1 µM) | IC50 (second compound 3.16 µM) | IC50 (second compound 10 µM)
inactive: viability, T/C (second compound 0.0316 µM, first compound 0.000316 µM) 92% | viability, T/C (second compound 0.0316 µM, first compound 0.001 µM) 109% | viability, T/C (second compound 0.0316 µM, first compound 0.00316 µM) 98.2% | viability, T/C (second compound 0.0316 µM, first compound 0.01 µM) 116% | viability, T/C [1] 98.7% | viability, T/C [2] 93.2% | viability, T/C (second compound 0.1 µM, first compound 0.000316 µM) 111% | viability, T/C (second compound 0.1 µM, first compound 0.001 µM) 104% | viability, T/C (second compound 0.1 µM, first compound 0.00316 µM) 108% | viability, T/C (second compound 0.1 µM, first compound 0.01 µM) 102% | viability, T/C [7] 100% | viability, T/C [8] 96% | viability, T/C (second compound 0.316 µM, first compound 0.000316 µM) 102% | viability, T/C (second compound 0.316 µM, first compound 0.001 µM) 103% | viability, T/C (second compound 0.316 µM, first compound 0.00316 µM) 96.7% | viability, T/C (second compound 0.316 µM, first compound 0.01 µM) 93.8% | viability, T/C [13] 112% | viability, T/C [14] 98.9% | viability, T/C (second compound 1 µM, first compound 0.000316 µM) 100% | viability, T/C (second compound 1 µM, first compound 0.001 µM) 107% | viability, T/C (second compound 1 µM, first compound 0.00316 µM) 109% | viability, T/C (second compound 1 µM, first compound 0.01 µM) 94.5% | viability, T/C [19] 95.2% | viability, T/C [20] 97.2% | viability, T/C (second compound 3.16 µM, first compound 0.000316 µM) 106% | viability, T/C (second compound 3.16 µM, first compound 0.001 µM) 99.3% | viability, T/C (second compound 3.16 µM, first compound 0.00316 µM) 95.9% | viability, T/C (second compound 3.16 µM, first compound 0.01 µM) 91.7% | viability, T/C [25] 95.8% | viability, T/C [26] 93% | viability, T/C (second compound 10 µM, first compound 0.000316 µM) 108% | viability, T/C (second compound 10 µM, first compound 0.001 µM) 95.3% | viability, T/C (second compound 10 µM, first compound 0.00316 µM) 116% | viability, T/C (second compound 10 µM, first compound 0.01 µM) 119% | viability, T/C [31] 109% | viability, T/C [32] 90.1%
